Columns and labels:
[1] = biological target: GDP-bound NRAS wild-type protein (Homo sapiens, UniProt P01111); assay: Binding to NRAS by surface plasmon resonance (SPR), Single Cycle Kinetics; details: for NRAS/KRAS (ratio of KD value with respect to NRAS to KD value with respect to KRAS) / NRAS/KRAS (ratio of KD value for NRAS to KD value for KRAS): GDP-bound NRAS wild-type vs GDP-bound KRAS wild-type
[2] = biological target: GDP-bound HRAS wild-type protein (Homo sapiens, UniProt P01112); assay: Binding to HRAS by surface plasmon resonance (SPR), Single Cycle Kinetics; details: for HRAS/KRAS (ratio of KD value with respect to HRAS to KD value with respect to KRAS) / HRAS/KRAS (ratio of KD value for HRAS to KD value for KRAS): GDP-bound HRAS wild-type vs GDP-bound KRAS wild-type
Chain of GDP-bound HRAS wild-type protein (P01112 whole entry): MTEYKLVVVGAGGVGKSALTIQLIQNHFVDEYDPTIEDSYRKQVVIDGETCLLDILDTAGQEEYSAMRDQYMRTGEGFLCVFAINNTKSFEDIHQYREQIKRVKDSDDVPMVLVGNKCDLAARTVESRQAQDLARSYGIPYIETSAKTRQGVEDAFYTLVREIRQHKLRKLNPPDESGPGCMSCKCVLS

Chain of GDP-bound NRAS wild-type protein (P01111 whole entry): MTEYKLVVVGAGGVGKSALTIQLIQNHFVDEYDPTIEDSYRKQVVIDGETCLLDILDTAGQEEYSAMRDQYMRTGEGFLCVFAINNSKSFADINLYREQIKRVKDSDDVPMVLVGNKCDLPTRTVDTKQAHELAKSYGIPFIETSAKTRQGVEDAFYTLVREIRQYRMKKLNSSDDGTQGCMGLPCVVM

CCO[C@@H]1C[C@H]2C(=O)NC3(CC(C)(C)C3)C(=O)N(C)[C@@H](C(CC)CC)C(=O)N(C)[C@H](C(=O)N(C)C)CC(=O)N(C)[C@@H](CC3CC3)C(=O)N[C@@H]([C@@H](C)CC)C(=O)N(C)CC(=O)N(C)[C@H]3C/C=C\CCN(C3=O)[C@@H](Cc3ccc(C)cc3)C(=O)N(C)CC(=O)N[C@@H](CCc3ccc(C(F)(F)F)c(OC)c3)C(=O)N2C1 [PP2166]
NRAS/KRAS (ratio of KD value with respect to NRAS to KD value with respect to KRAS) ([1]; SPR): A (a compound having 10 or more and less than 20 is denoted as A)
HRAS/KRAS (ratio of KD value with respect to HRAS to KD value with respect to KRAS) ([2]; SPR): A (a compound having 10 or more and less than 20 is denoted as A)

CCO[C@@H]1C[C@H]2C(=O)NC3(CCC3)C(=O)N(C)[C@@H](C3CCCC3)C(=O)N(C)[C@H](C(=O)N(C)C)CC(=O)N(C)[C@@H](CC)C(=O)N[C@@H]([C@@H](C)CC)C(=O)N(C)CC(=O)N(C)[C@H]3CCCCCN(C3=O)[C@@H](Cc3ccc(F)cc3)C(=O)N(C)CC(=O)N[C@@H](CCc3cc(F)c(C(F)(F)F)c(F)c3)C(=O)N2C1 [PP1190]
NRAS/KRAS (ratio of KD value with respect to NRAS to KD value with respect to KRAS) ([1]; KD ratio, SPR): B (a compound having 3 or more and less than 10 is denoted as B)
HRAS/KRAS (ratio of KD value with respect to HRAS to KD value with respect to KRAS) ([2]; KD ratio, SPR): B (a compound having 3 or more and less than 10 is denoted as B)

CC[C@H](C)[C@@H]1NC(=O)[C@H](CC(C)C)N(C)C(=O)C[C@@H](C(=O)N(C)CC)N(C)C(=O)[C@H](C2CCCC2)N(C)C(=O)C2(CCC2)NC(=O)[C@@H]2C[C@H](C)CN2C(=O)[C@H](CCc2ccc(C(F)(F)F)c(OC)c2)NC(=O)CN(C)C(=O)[C@H](Cc2ccc(C)cc2)N2CC/C=C\C[C@@H](C2=O)N(C)C(=O)CN(C)C1=O [PP1904]
NRAS/KRAS (ratio of KD value for NRAS to KD value for KRAS) ([1]; KD ratio, SPR): A (a compound having 10 or more and less than 20 is denoted as A)
HRAS/KRAS (ratio of KD value for HRAS to KD value for KRAS) ([2]; KD ratio, SPR): B (a compound having 3 or more and less than 10 is denoted as B)

CCCN(C)C(=O)[C@@H]1CC(=O)N(C)[C@@H](CC)C(=O)N[C@@H]([C@@H](C)CC)C(=O)N(C)CC(=O)N(C)[C@H]2C/C=C\CCN(C2=O)[C@@H](Cc2ccc(C(F)(F)F)cc2)C(=O)N(C)CC(=O)N[C@@H](CCc2cc(F)c(C(F)(F)F)c(F)c2)C(=O)N2CC[C@H]2C(=O)NC2(CCC2)C(=O)N(C)[C@@H](C2CCCC2)C(=O)N1C [PP2915]
NRAS/KRAS (ratio of KD value with respect to GDP-bound NRAS wild-type protein to KD value with respect to KRAS) ([1]; class symbols): A (a compound having 10 or more and less than 20 is denoted as A)
HRAS/KRAS (ratio of KD value with respect to GDP-bound HRAS wild-type protein to KD value with respect to KRAS) ([2]; class symbols): A (a compound having 10 or more and less than 20 is denoted as A)

CCCO[C@H](C)[C@@H]1NC(=O)[C@H](CC(C)C)N(C)C(=O)C[C@@H](C(=O)N(C)CC)N(C)C(=O)[C@H](C2CCCC2)N(C)C(=O)C2(CC(C)(C)C2)NC(=O)[C@@H]2C[C@H](C)CN2C(=O)[C@H](CCc2cc(F)c(C(F)(F)F)c(F)c2)NC(=O)CN(C)C(=O)[C@H](Cc2ccc(C)cc2)N2CC/C=C\C[C@@H](C2=O)N(C)C(=O)CN(C)C1=O [PP2417]
NRAS/KRAS (ratio of KD value with respect to NRAS to KD value with respect to KRAS) ([1]; SPR): A (a compound having 10 or more and less than 20 is denoted as A)
HRAS/KRAS (ratio of KD value with respect to HRAS to KD value with respect to KRAS) ([2]; SPR): A (a compound having 10 or more and less than 20 is denoted as A)

CCO[C@@H]1C[C@H]2C(=O)NC3(CCC3)C(=O)N(C)[C@@H](C3CCCC3)C(=O)N(CCC3CCCC3)[C@H](C(=O)N(C)C)CC(=O)N(C)[C@@H](CC)C(=O)N[C@@H]([C@@H](C)CC)C(=O)N(C)CC(=O)N(C)[C@H]3CCCCCN(C3=O)[C@@H](Cc3ccc(C(F)(F)F)cc3)C(=O)N(C)CC(=O)N[C@@H](CCc3cc(F)c(C(F)(F)F)c(F)c3)C(=O)N2C1 [PP0636]
NRAS/KRAS (ratio of KD value with respect to GDP-bound NRAS wild-type protein to KD value with respect to KRAS) ([1]; SPR): A (a compound having 10 or more and less than 20 is denoted as A)
HRAS/KRAS (ratio of KD value with respect to GDP-bound HRAS wild-type protein to KD value with respect to KRAS) ([2]; SPR): A (a compound having 10 or more and less than 20 is denoted as A)

CCO[C@@H]1C[C@H]2C(=O)NC3(CC(F)(F)C3)C(=O)N(C)[C@@H](C(CC)CC)C(=O)N(C)[C@H](CC)CC(=O)N(C)[C@@H](CC)C(=O)N[C@@H]([C@@H](C)CC)C(=O)N(C)CC(=O)N(C)[C@H]3C/C=C\CCN(C3=O)[C@@H](Cc3ccc(C(F)(F)F)cc3)C(=O)N(C)CC(=O)N[C@@H](CCc3cc(F)c(C(F)(F)F)c(F)c3)C(=O)N2C1 [PP1626]
NRAS/KRAS (ratio of KD value for NRAS to KD value for KRAS) ([1]; KD ratio, SPR): A (a compound having 10 or more and less than 20 is denoted as A)
HRAS/KRAS (ratio of KD value for HRAS to KD value for KRAS) ([2]; KD ratio, SPR): A (a compound having 10 or more and less than 20 is denoted as A)

— US20250230193A1, “CYCLIC COMPOUND HAVING SELECTIVE KRAS INHIBITORY EFFECT ON HRAS AND NRAS” (CHUGAI SEIYAKU KABUSHIKI KAISHA, priority 2022, published 2025)
